The values below come from ChEMBL document CHEMBL3603838, “Guanidinium compounds with sub-micromolar activities against Mycobacterium tuberculosis. Synthesis, characterization and biological evaluations” (Bioorg Med Chem, 2015).

One may read the MIC as the least concentration at which growth counts as inhibited. Lower therefore signals inhibition by little substance. The IC50 is the midpoint of a concentration-inhibition curve.

In series [1] the test system is Mycobacterium tuberculosis. Nature of the series: Antimycobacterial activity against isoniazid-resistant Mycobacterium tuberculosis MYC5165 after 6 days by MTT assay. Type of series: functional, organism-based. As to conditions: MYC5165, 144 h. Background: Tetrazolium dyes change colour on reduction, which living cells bring about.
The nature of series [2]: Selectivity index, ratio of CC50 for human MRC5 cells to MIC for isoniazid-resistant Mycobacterium tuberculosis MYC5165. The settings on record: read-out: Selectivity Index. It counts as toxicity, cell-based.
For series [3], the system named is Mycobacterium tuberculosis. Nature of the series: Ratio of isoniazid MIC to compound MIC for isoniazid-resistant Mycobacterium tuberculosis MYC5165. It counts as functional.
For series [4], the system named is Mycobacterium tuberculosis. Nature of the series: Ratio of CX1 MIC to compound MIC for isoniazid-resistant Mycobacterium tuberculosis MYC5165. It counts as functional.
The test system of series [5] is Mycobacterium tuberculosis. Nature of the series: Ratio of streptomycin MIC to compound MIC for isoniazid-resistant Mycobacterium tuberculosis MYC5165. Type of series: functional.

Converted amounts (≈) assume the structure as drawn.

In series [1], `N=C(N)NCCc1cc2c(O)c(c1)Cc1cc(CCNC(=N)N)cc(c1O)Cc1cc(CCNC(=N)N)cc(c1O)Cc1cc(CCNC(=N)N)cc(c1O)C2` came in with an MIC of 0.8 µM (≈ 0.612 µg/mL). Besides, the selectivity ratio in series [2] was above 256.
Molecule `NNC(=O)c1ccncc1` [ISONIAZID] returned an MIC in series [1] of 12.5 µM (≈ 1.71 µg/mL). The concentration for half-maximal inhibition (IC50) in series [1] (read-out: IC50) is 650 nM. Besides, the selectivity ratio in series [2] was above 6.
For `N=C(N)NCCc1ccc(OCc2cc(COc3ccc(CCNC(=N)N)cc3)c(COc3ccc(CCNC(=N)N)cc3)cc2COc2ccc(CCNC(=N)N)cc2)cc1.O=C(O)C(F)(F)F`, in series [1], the MIC turned out to be 0.1 µM. In addition, the IC50 in series [1] (read-out: IC50) was 30 nM. The Ratio in series [3] was above 125. Also, the selectivity ratio in series [2] was 377.
In series [1], `N=C(N)NCCc1ccc(OCc2cccc(COc3ccc(CCNC(=N)N)cc3)c2)cc1.O=C(O)C(F)(F)F` came in with an MIC of 0.8 µM. For the same molecule, the IC50 in series [1] (read-out: IC50) worked out at 300 nM. Further, the Ratio in series [3] and in series [4] was 16 in each case. For the same molecule, in series [2], the selectivity ratio is 62.
In series [1], `N=C(N)NCCc1ccc(OCc2ccc(COc3ccc(CCNC(=N)N)cc3)cc2)cc1.O=C(O)C(F)(F)F` came in with an MIC of 0.8 µM. Moreover, the half-maximal inhibitory concentration (IC50) in series [1] (read-out: IC50) is 200 nM. For the same molecule, the Ratio in series [3] was 60; in series [4], 16. For the same molecule, in series [2], the selectivity ratio was determined as 38.
In series [1], `O=C(O)c1cn(C2CC2)c2cc(N3CCNCC3)c(F)cc2c1=O` [CIPROFLOXACIN] had an IC50 of 1800 nM and an MIC of 2.5 µM (≈ 0.828 µg/mL).
`N=C(N)NCCc1ccc(OCc2ccccc2COc2ccc(CCNC(=N)N)cc2)cc1.O=C(O)C(F)(F)F`: the lowest concentration to inhibit growth in series [1] (MIC) was 3.1 µM. Further, the IC50 in series [1] (read-out: IC50) worked out at 900 nM. Moreover, the Ratio in series [3] came to 4. Besides, the selectivity ratio in series [2] is 45.
The molecule `N=C(N)NCCc1ccc(OCc2cc(COc3ccc(CCNC(=N)N)cc3)cc(COc3ccc(CCNC(=N)N)cc3)c2)cc1.O=C(O)C(F)(F)F` displayed an MIC in series [1] of 0.2 µM. Also, the Ratio in series [3] was above 125; in series [5], 4. In series [2], the selectivity ratio was 198.
`CN[C@@H]1[C@H](O[C@H]2[C@H](O[C@H]3[C@H](O)[C@@H](O)[C@H](N=C(N)N)[C@@H](O)[C@@H]3N=C(N)N)O[C@@H](C)[C@]2(O)C=O)O[C@@H](CO)[C@H](O)[C@H]1O` [STREPTOMYCIN] yielded an MIC in series [1] of 2.7 µM (≈ 1.57 µg/mL).
